Here are results for 18 compounds from PubChem BioAssay AID330 (DTP/NCI, 2004).

The test system of this experiment is P388 leukemia ip, CD2F1 mice, survival T/C. Put plainly: NCI In Vivo Anticancer Drug Screen. Data for tumor model P388 Leukemia (intraperitoneal) in CD2F1 (CDF1) mice. The following applies: endpoint: median survival time, higher = longer survival. The method in brief:
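Mice carrying the transplanted tumor received test compound or vehicle. Survival was recorded in each group, and the value is the treated-group measurement divided by that of the vehicle-treated control group.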

Where [1] appears, read: dose: 50.0 mg/kg/injection, schedule: Q01DX009 (ip), vehicle: Klucel (hydroxypropylcellulose) (HPC).
Where [2] appears, read: dose: 100.0 mg/kg/injection, schedule: Q01DX009 (ip), vehicle: Klucel (hydroxypropylcellulose) (HPC).
Setting [3] is: dose: 200.0 mg/kg/injection, schedule: Q01DX009 (ip), vehicle: Klucel (hydroxypropylcellulose) (HPC).
[4] abbreviates: dose: 100.0 mg/kg/injection, schedule: Q04DX003 (ip), vehicle: saline with Tween-80.
The mark [5] stands for this setting: dose: 400.0 mg/kg/injection, schedule: Q04DX003 (ip), vehicle: saline with Tween-80.
Where [6] appears, read: dose: 50.0 mg/kg/injection, schedule: Q04DX003 (ip), vehicle: saline with Tween-80.
Setting [7] is: dose: 50.0 mg/kg/injection, schedule: Q01DX005 (ip), vehicle: Klucel (hydroxypropylcellulose) (HPC).
[8] abbreviates: dose: 100.0 mg/kg/injection, schedule: Q01DX005 (ip), vehicle: Klucel (hydroxypropylcellulose) (HPC).
Where [9] appears, read: dose: 200.0 mg/kg/injection, schedule: Q01DX005 (ip), vehicle: Klucel (hydroxypropylcellulose) (HPC).
[10] abbreviates: dose: 200.0 mg/kg/injection, schedule: Q04DX003 (ip), vehicle: saline with Tween-80.
Setting [11] is: dose: 60.0 mg/kg/injection, schedule: Q01DX005 (ip), vehicle: Klucel (hydroxypropylcellulose) (HPC).
Where [12] appears, read: dose: 120.0 mg/kg/injection, schedule: Q01DX005 (ip), vehicle: Klucel (hydroxypropylcellulose) (HPC).

The structures appear in SMILES notation. “And” between values parts separate entries of the source, which are not always exact repeats. Identical values can stand only once. Inconclusive results and toxic doses are left out.

As for `CC(=O)NCC(CN(C)C)(c1ccccc1)c1ccccc1`, the T/C (dose: 37.5 mg/kg/injection, schedule: Q01DX009 (ip), vehicle: Klucel (hydroxypropylcellulose) (HPC)) is 101 % of control; the T/C (dose: 75.0 mg/kg/injection, schedule: Q01DX009 (ip), vehicle: Klucel (hydroxypropylcellulose) (HPC)) was 101 % of control; the T/C (dose: 150.0 mg/kg/injection, schedule: Q01DX009 (ip), vehicle: Klucel (hydroxypropylcellulose) (HPC)) was 96 % of control; the T/C (dose: 300.0 mg/kg/injection, schedule: Q01DX009 (ip), vehicle: Klucel (hydroxypropylcellulose) (HPC)) is 95 % of control.
As for `CCOC(=O)/C(C#N)=C\c1c(OC(C)=O)cn2c(C)cccc12`, the T/C by setting is: (dose: 100.0 mg/kg/injection, schedule: Q01DX001 (ip), vehicle: saline with Tween-80) 104 % of control; (dose: 200.0 mg/kg/injection, schedule: Q01DX001 (ip), vehicle: saline with Tween-80) 98 % of control; (dose: 400.0 mg/kg/injection, schedule: Q01DX001 (ip), vehicle: saline with Tween-80) 98 % of control.
On to `Nc1ccc(N)c(N)n1`, for which the T/C runs as follows: (dose: 6.25 mg/kg/injection, schedule: Q01DX009 (ip), vehicle: saline) 95 % of control; (dose: 12.5 mg/kg/injection, schedule: Q01DX009 (ip), vehicle: saline) 104 % of control; (dose: 25.0 mg/kg/injection, schedule: Q01DX009 (ip), vehicle: saline) 100 % of control.
In the case of `O=C(CC[N+](=O)[O-])OCC1OC(O)C(OC(=O)CC[N+](=O)[O-])C(O)C1O` (stereo not drawn), the T/C was 100 % of control (dose: 12.5 mg/kg/injection, schedule: Q01DX005 (ip), vehicle: distilled water + Tween-80); 100 % of control (dose: 18.75 mg/kg/injection, schedule: Q01DX001 (ip), vehicle: saline + alcohol); 97 % of control (dose: 25.0 mg/kg/injection, schedule: Q01DX005 (ip), vehicle: distilled water + Tween-80); 101 % of control (dose: 37.5 mg/kg/injection, schedule: Q01DX001 (ip), vehicle: saline + alcohol); 100 % of control (dose: 50.0 mg/kg/injection, schedule: Q01DX005 (ip), vehicle: distilled water + Tween-80); 109 % of control (dose: 75.0 mg/kg/injection, schedule: Q01DX001 (ip), vehicle: saline + alcohol). Moreover, the T/C was 98 % of control (dose: 100.0 mg/kg/injection, schedule: Q01DX005 (ip), vehicle: distilled water + Tween-80) and 100 % of control (dose: 200.0 mg/kg/injection, schedule: Q01DX005 (ip), vehicle: distilled water + Tween-80).
As to `Cc1c(-c2ccccc2)oc(=O)c(Cl)c1N(c1ccccc1)c1ccccc1`, the T/C runs as follows: (dose: 50.0 mg/kg/injection, schedule: Q01DX005 (ip), vehicle: saline with Tween-80) 93 % of control; (dose: 100.0 mg/kg/injection, schedule: Q01DX005 (ip), vehicle: saline with Tween-80) 98 % of control; (dose: 200.0 mg/kg/injection, schedule: Q01DX005 (ip), vehicle: saline with Tween-80) 90 % of control.
Consider `CC(=O)N=c1sccn1CC(O)c1ccccc1` (stereo not drawn), for which the T/C by setting is: under setting [1], 105 % of control; under setting [2], 99 % of control; (dose: 200.0 mg/kg/injection, schedule: Q01DX001 (ip), vehicle: Klucel (hydroxypropylcellulose) (HPC)) 118 % of control; under setting [3], 108 % of control; (dose: 400.0 mg/kg/injection, schedule: Q01DX001 (ip), vehicle: Klucel (hydroxypropylcellulose) (HPC)) 100 % of control.
Consider `COCCCNS(=O)(=O)c1ncnc2nc[nH]c12`, for which the T/C reads like this: (dose: 100.0 mg/kg/injection, schedule: Q01DX009 (ip), vehicle: saline) 104 % of control; under setting [4], 108 % of control; (dose: 200.0 mg/kg/injection, schedule: Q01DX009 (ip), vehicle: saline) 100 % of control; (dose: 400.0 mg/kg/injection, schedule: Q01DX009 (ip), vehicle: saline) 86 % of control; under setting [5], 108 % of control.
Regarding `C[CH2][Sn]([c]1ccccc1)([c]1ccccc1)[c]1ccccc1`, the T/C (dose: 12.5 mg/kg/injection, schedule: Q04DX003 (ip), vehicle: saline with Tween-80) was 95 % of control; the T/C (dose: 25.0 mg/kg/injection, schedule: Q04DX003 (ip), vehicle: saline with Tween-80) was 100 % of control; the T/C under setting [6] was 100 % of control.
Regarding `CC1(C)C=Cc2c(cc(O)c3c(=O)c4cccnc4oc23)O1`, the T/C is 90 % of control under setting [7], 102 % of control under setting [8] and 90 % of control under setting [9].
Regarding `COc1cccc2c1C(=O)c1c(O)c3c(c(O)c1C2=O)CC(O)(C(O)CO)CC3OC1CC(N2CCCCC2)C(O)C(C)O1` (stereo not drawn), the T/C runs as follows: (dose: 0.39 mg/kg/injection, schedule: Q01DX009 (ip), vehicle: water) 115 % of control; (dose: 1.56 mg/kg/injection, schedule: Q01DX009 (ip), vehicle: water) 153 % of control and 157 % of control; (dose: 2.4 mg/kg/injection, schedule: Q04DX003 (ip), vehicle: water) 100 % of control; (dose: 4.7 mg/kg/injection, schedule: Q04DX003 (ip), vehicle: water) 106 % of control; (dose: 9.4 mg/kg/injection, schedule: Q04DX003 (ip), vehicle: water) 114 % of control and 124 % of control; (dose: 18.8 mg/kg/injection, schedule: Q04DX003 (ip), vehicle: water) 124 % of control. For the setting “dose: 75.0 mg/kg/injection, schedule: Q04DX003 (ip), vehicle: water”, the T/C is 101 % of control.
As for `COc1cc2c(cc1OC)C(CSC)Cc1cc(OC)c(OC)cc1N(C)CCC2` (stereo not drawn), the T/C by setting is: under setting [4], 102 % of control; under setting [10], 93 % of control; under setting [5], 93 % of control.
Turning to `O=C(Nc1ccccc1)c1cnc[nH]1`, the T/C (dose: 25.0 mg/kg/injection, schedule: Q01DX009 (ip), vehicle: Klucel (hydroxypropylcellulose) (HPC)) was 99 % of control; the T/C under setting [1] was 102 % of control; the T/C under setting [2] is 102 % of control; the T/C under setting [3] is 96 % of control.
Regarding `Cn1c(N)nc(N)c(NC=O)c1=O`, the T/C runs as follows: under setting [7], 101 % of control; under setting [8], 103 % of control; under setting [9], 101 % of control.
Consider `CN(C)c1ccc(C2c3cc4c(cc3OC3(N5CCCC5)CCCCC23)OCO4)cc1` (stereo not drawn), for which the T/C under setting [11] was 95 % of control; the T/C under setting [12] was 97 % of control; the T/C (dose: 240.0 mg/kg/injection, schedule: Q01DX005 (ip), vehicle: Klucel (hydroxypropylcellulose) (HPC)) was 89 % of control.
Take `c1cnc2ccc3ncccc3c2c1`: the T/C by setting is: (dose: 12.5 mg/kg/injection, schedule: Q01DX005 (ip), vehicle: Klucel (hydroxypropylcellulose) (HPC)) 99 % of control; (dose: 25.0 mg/kg/injection, schedule: Q01DX005 (ip), vehicle: Klucel (hydroxypropylcellulose) (HPC)) 96 % of control; under setting [7], 100 % of control and 97 % of control.
As to `Cn1c(=O)ccc2ccc(N(CCO)CCO)nc21`, the T/C reads like this: under setting [6], 98 % of control; under setting [4], 94 % of control; under setting [10], 103 % of control.
Turning to `COC(=O)C1C2C1C1C=CC2n2c(=O)n(-c3ccccc3)c(=O)n21` (stereo not drawn), the T/C is 97 % of control under setting [7], 97 % of control under setting [8] and 110 % of control under setting [9].
`CN(C)C(=O)c1nc(CNC(=O)CN)n(-c2ccc(Cl)cc2C(=O)c2ccccc2)n1`: the T/C runs as follows: under setting [11], 103 % of control; under setting [12], 100 % of control.
